Experimental data as given in ChEMBL document CHEMBL1201862, “PubChem BioAssay data set” (2004).
Where “and” joins values, the source holds several entries; their conditions need not be identical. Equal values may be shown once.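 The compound was tested at five concentrations on cells cultured in 96-well plates, with a 48-hour exposure period. Here, GI50 denotes the concentration required for 50% inhibition of growth.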 Calls of active or inactive are those of the source. Rule as the data show it: active = GI50 up to about 1.1 µM and inactive = higher.

Columns and labels:
Assay in all cases: NCI-60 cell line screen, 48 h
RPMI-8226 = system: RPMI-8226
OVCAR-4 = system: OVCAR-4
A549 = system: A549
NCI/ADR-RES = system: NCI/ADR-RES
HL-60 = system: HL-60
K562 = system: K562
OVCAR-8 = system: OVCAR-8
NCI-H522 = system: NCI-H522
Hs-578T = system: Hs-578T
SN12C = system: SN12C
COLO 205 = system: COLO 205
NCI-H226 = system: NCI-H226
OVCAR-5 = system: OVCAR-5
MOLT-4 = system: MOLT-4
KM12 = system: KM12
SNB-75 = system: SNB-75
SK-OV-3 = system: SK-OV-3
SF-539 = system: SF-539
MDA-N = system: MDA-N
HOP-62 = system: HOP-62
OVCAR-3 = system: OVCAR-3
786-0 = system: 786-0
ACHN = system: ACHN
HCT-15 = system: HCT-15
SR = system: SR
MCF7 = system: MCF7
HOP-92 = system: HOP-92
DU-145 = system: DU-145
CAKI-1 = system: CAKI-1
HCC 2998 = system: HCC 2998
Malme-3M = system: Malme-3M
MDA-MB-435 = system: MDA-MB-435
IGROV-1 = system: IGROV-1
UACC-257 = system: UACC-257
A498 = system: A498
TK-10 = system: TK-10
RXF 393 = system: RXF 393
NCI-H23 = system: NCI-H23
HT-29 = system: HT-29
CCRF-CEM = system: CCRF-CEM
SK-MEL-5 = system: SK-MEL-5
UACC-62 = system: UACC-62
MDA-MB-231 = system: MDA-MB-231
EKVX = system: EKVX
PC-3 = system: PC-3
NCI-H460 = system: NCI-H460
UO-31 = system: UO-31
U-251 = system: U-251
SNB-19 = system: SNB-19
M14 = system: M14
SW-620 = system: SW-620
SF-295 = system: SF-295
SK-MEL-28 = system: SK-MEL-28
T47D = system: T47D
HCT-116 = system: HCT-116
BT-549 = system: BT-549
SF-268 = system: SF-268
LOX IMVI = system: LOX IMVI
SK-MEL-2 = system: SK-MEL-2

## C[n+]1c(-c2ccc(/C=N\Nc3ccnc(N/N=C/c4ccc(-c5cn6ccsc6[n+]5C)cc4)n3)cc2)cn2ccsc21
RPMI-8226
  GI50: 4.65 µM (inactive)
OVCAR-4
  GI50: 58.1 µM (inactive)
A549
  GI50: 31.3 µM (inactive)
NCI/ADR-RES
  GI50: 51.2 µM (inactive)
HL-60
  GI50: 24.2 µM (inactive)
K562
  GI50: 8.71 µM (inactive)
OVCAR-8
  GI50: 27.4 µM (inactive)
NCI-H522
  GI50: > 100 µM (inactive)
Hs-578T
  GI50: 84.1 µM (inactive)
SN12C
  GI50: 27.1 µM (inactive)
COLO 205
  GI50: 27.6 µM (inactive)
NCI-H226
  GI50: 16.4 µM (inactive)
OVCAR-5
  GI50: 16.7 µM (inactive)
MOLT-4
  GI50: 24.2 µM (inactive)
KM12
  GI50: 15.8 µM (inactive)
SNB-75
  GI50: 34 µM (inactive)
SK-OV-3
  GI50: > 100 µM (inactive)
SF-539
  GI50: 11.6 µM (inactive)
MDA-N
  GI50: 2.96 µM (inactive)
HOP-62
  GI50: 18.1 µM (inactive)
OVCAR-3
  GI50: > 100 µM (inactive)
786-0
  GI50: 10.9 µM (inactive)
ACHN
  GI50: 32.5 µM (inactive)
HCT-15
  GI50: 64.4 µM
SR
  GI50: 12.6 µM (inactive)
MCF7
  GI50: 34.8 µM (inactive)
HOP-92
  GI50: 18.3 µM (inactive)
DU-145
  GI50: 27.8 µM (inactive)
CAKI-1
  GI50: 22.7 µM (inactive)
HCC 2998
  GI50: 37.2 µM (inactive)
Malme-3M
  GI50: 29.7 µM (inactive)
MDA-MB-435
  GI50: 2.24 µM (inactive)
IGROV-1
  GI50: 11.2 µM (inactive)
UACC-257
  GI50: 17.7 µM (inactive)
A498
  GI50: 17.1 µM (inactive)
TK-10
  GI50: 20.3 µM (inactive)
RXF 393
  GI50: 18.3 µM (inactive)
NCI-H23
  GI50: 11.5 µM (inactive)
HT-29
  GI50: 9.93 µM (inactive)
CCRF-CEM
  GI50: 18.3 µM (inactive)
SK-MEL-5
  GI50: 10.6 µM (inactive)
UACC-62
  GI50: 24.4 µM (inactive)
MDA-MB-231
  GI50: 15.2 µM (inactive)
EKVX
  GI50: 24.8 µM (inactive)
PC-3
  GI50: 48.3 µM (inactive)
NCI-H460
  GI50: 23 µM (inactive)
UO-31
  GI50: 20 µM (inactive)
U-251
  GI50: 32.6 µM (inactive)
SNB-19
  GI50: 37.6 µM (inactive)
M14
  GI50: 4.95 µM (inactive)
SW-620
  GI50: 32.7 µM (inactive)

## C=CCN1C(=O)/C(=C/c2ccc(C)cc2)N=C1SC1OC(COC(C)=O)C(OC(C)=O)C(OC(C)=O)C1OC(C)=O (stereo unspecified)
OVCAR-4
  GI50: 7.83 µM (inactive)
A549
  GI50: > 100 µM (inactive)
SF-295
  GI50: 60.1 µM (inactive)
SK-MEL-28
  GI50: > 100 µM (inactive)
HL-60
  GI50: > 76.4 µM (inactive)
SN12C
  GI50: > 100 µM (inactive)
T47D
  GI50: 14.4 µM (inactive)
COLO 205
  GI50: 59.4 µM (inactive)
OVCAR-5
  GI50: 53.2 µM (inactive) and > 82.8 µM (inactive)
MDA-N
  GI50: > 100 µM (inactive)
786-0
  GI50: 3.4 µM (inactive)
MCF7
  GI50: 39.4 µM (inactive) and 34.8 µM (inactive)
DU-145
  GI50: 33.9 µM (inactive) and > 45.3 µM (inactive)
Malme-3M
  GI50: 39.2 µM (inactive)
HCT-116
  GI50: 34.1 µM (inactive)
TK-10
  GI50: > 100 µM (inactive)
RXF 393
  GI50: 11.6 µM (inactive) and 8.43 µM (inactive)
BT-549
  GI50: 25.3 µM (inactive) and 23.3 µM (inactive)
HT-29
  GI50: > 100 µM (inactive)
MDA-MB-231
  GI50: 28.7 µM (inactive) and 27.5 µM (inactive)
EKVX
  GI50: 51.8 µM (inactive)
SNB-19
  GI50: > 100 µM (inactive)
M14
  GI50: 68.7 µM (inactive)

## CC1(C)COC(c2cccc(C3=NC(C)(C)CO3)c2Br)=N1
RPMI-8226
  GI50: > 100 µM (inactive)
OVCAR-4
  GI50: > 100 µM (inactive)
A549
  GI50: > 100 µM (inactive)
SK-MEL-28
  GI50: > 100 µM (inactive)
NCI/ADR-RES
  GI50: > 100 µM (inactive)
HL-60
  GI50: > 100 µM (inactive)
SF-268
  GI50: > 100 µM (inactive)
K562
  GI50: > 100 µM (inactive)
OVCAR-8
  GI50: > 100 µM (inactive)
T47D
  GI50: > 100 µM (inactive)
COLO 205
  GI50: > 100 µM (inactive)
NCI-H226
  GI50: > 100 µM (inactive)
OVCAR-5
  GI50: > 100 µM (inactive)
MOLT-4
  GI50: > 100 µM (inactive)
KM12
  GI50: > 100 µM (inactive)
SNB-75
  GI50: 3.05 µM (inactive)
SF-539
  GI50: > 100 µM (inactive)
HOP-62
  GI50: > 100 µM (inactive)
LOX IMVI
  GI50: > 100 µM (inactive)
786-0
  GI50: > 100 µM (inactive)
ACHN
  GI50: > 100 µM (inactive)
HCT-15
  GI50: > 100 µM
SR
  GI50: > 100 µM (inactive)
MCF7
  GI50: > 100 µM (inactive)
HOP-92
  GI50: > 100 µM (inactive)
DU-145
  GI50: > 100 µM (inactive)
CAKI-1
  GI50: > 100 µM (inactive)
HCC 2998
  GI50: > 100 µM (inactive)
Malme-3M
  GI50: > 100 µM (inactive)
MDA-MB-435
  GI50: > 100 µM (inactive)
IGROV-1
  GI50: > 100 µM (inactive)
UACC-257
  GI50: > 100 µM (inactive)
HCT-116
  GI50: > 100 µM (inactive)
TK-10
  GI50: > 100 µM (inactive)
RXF 393
  GI50: > 100 µM (inactive)
NCI-H23
  GI50: > 100 µM (inactive)
BT-549
  GI50: > 100 µM (inactive)
HT-29
  GI50: > 100 µM (inactive)
SK-MEL-5
  GI50: > 100 µM (inactive)
UACC-62
  GI50: 7.48 µM (inactive)
SK-MEL-2
  GI50: > 100 µM (inactive)
MDA-MB-231
  GI50: > 100 µM (inactive)
EKVX
  GI50: > 100 µM (inactive)
PC-3
  GI50: > 100 µM (inactive)
NCI-H460
  GI50: > 100 µM (inactive)
UO-31
  GI50: > 100 µM (inactive)
U-251
  GI50: > 100 µM (inactive)
SNB-19
  GI50: > 100 µM (inactive)
M14
  GI50: > 100 µM (inactive)
SW-620
  GI50: > 100 µM (inactive)

## CC(=O)OCC1OC(n2c(=S)n(-c3ccc(C)cc3)c(=O)c3ccccc32)C(OC(C)=O)C(OC(C)=O)C1OC(C)=O (stereo unspecified)
RPMI-8226
  GI50: 86.3 µM (inactive) and 49.1 µM (inactive)
MOLT-4
  GI50: 65.3 µM (inactive)
SR
  GI50: 23.7 µM (inactive)
HOP-92
  GI50: 31.6 µM (inactive) and 30.4 µM (inactive)
TK-10
  GI50: 29 µM (inactive)
RXF 393
  GI50: 83 µM (inactive) and 67 µM (inactive)
UO-31
  GI50: 62.4 µM (inactive) and 58.1 µM (inactive)
